The target in this experiment is T1, mutant integrin CD11bE320A/CD18 (Homo sapiens, UniProt P11215, E336A).
T1 construct: expressed in transfected cells; host or cells: K562 (ATCC)
T1 sequence (P11215 17-1152 E336A): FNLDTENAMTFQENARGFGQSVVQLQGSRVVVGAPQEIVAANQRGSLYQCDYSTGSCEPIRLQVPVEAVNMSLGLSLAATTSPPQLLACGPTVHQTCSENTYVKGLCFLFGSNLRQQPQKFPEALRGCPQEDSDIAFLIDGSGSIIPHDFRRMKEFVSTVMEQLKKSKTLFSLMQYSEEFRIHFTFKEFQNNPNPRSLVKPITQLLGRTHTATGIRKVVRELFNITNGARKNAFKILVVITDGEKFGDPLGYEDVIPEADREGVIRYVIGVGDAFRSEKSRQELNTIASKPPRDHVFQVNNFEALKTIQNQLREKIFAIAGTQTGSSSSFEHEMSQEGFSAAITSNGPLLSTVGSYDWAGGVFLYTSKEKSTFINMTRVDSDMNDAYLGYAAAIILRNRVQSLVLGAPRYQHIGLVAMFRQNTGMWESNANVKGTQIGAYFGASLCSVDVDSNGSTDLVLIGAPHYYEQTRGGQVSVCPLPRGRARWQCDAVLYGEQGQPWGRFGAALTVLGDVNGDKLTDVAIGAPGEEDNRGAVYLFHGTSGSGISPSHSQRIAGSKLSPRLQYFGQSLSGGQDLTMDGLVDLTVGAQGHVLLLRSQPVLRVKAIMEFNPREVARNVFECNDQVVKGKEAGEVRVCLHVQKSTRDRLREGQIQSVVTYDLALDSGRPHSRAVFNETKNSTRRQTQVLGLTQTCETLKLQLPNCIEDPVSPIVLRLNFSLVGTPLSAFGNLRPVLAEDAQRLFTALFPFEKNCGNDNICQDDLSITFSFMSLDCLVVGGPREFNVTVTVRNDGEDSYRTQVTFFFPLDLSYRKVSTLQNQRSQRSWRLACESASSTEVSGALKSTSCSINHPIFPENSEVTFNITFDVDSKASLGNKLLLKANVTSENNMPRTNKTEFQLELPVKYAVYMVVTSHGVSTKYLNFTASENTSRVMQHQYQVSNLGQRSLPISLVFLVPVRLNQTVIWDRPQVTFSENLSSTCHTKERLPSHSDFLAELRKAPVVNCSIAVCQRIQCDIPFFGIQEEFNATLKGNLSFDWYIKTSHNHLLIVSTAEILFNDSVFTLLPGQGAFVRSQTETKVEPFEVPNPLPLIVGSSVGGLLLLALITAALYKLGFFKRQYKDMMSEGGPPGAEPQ
T1 sequence (P05107 23-769 partner): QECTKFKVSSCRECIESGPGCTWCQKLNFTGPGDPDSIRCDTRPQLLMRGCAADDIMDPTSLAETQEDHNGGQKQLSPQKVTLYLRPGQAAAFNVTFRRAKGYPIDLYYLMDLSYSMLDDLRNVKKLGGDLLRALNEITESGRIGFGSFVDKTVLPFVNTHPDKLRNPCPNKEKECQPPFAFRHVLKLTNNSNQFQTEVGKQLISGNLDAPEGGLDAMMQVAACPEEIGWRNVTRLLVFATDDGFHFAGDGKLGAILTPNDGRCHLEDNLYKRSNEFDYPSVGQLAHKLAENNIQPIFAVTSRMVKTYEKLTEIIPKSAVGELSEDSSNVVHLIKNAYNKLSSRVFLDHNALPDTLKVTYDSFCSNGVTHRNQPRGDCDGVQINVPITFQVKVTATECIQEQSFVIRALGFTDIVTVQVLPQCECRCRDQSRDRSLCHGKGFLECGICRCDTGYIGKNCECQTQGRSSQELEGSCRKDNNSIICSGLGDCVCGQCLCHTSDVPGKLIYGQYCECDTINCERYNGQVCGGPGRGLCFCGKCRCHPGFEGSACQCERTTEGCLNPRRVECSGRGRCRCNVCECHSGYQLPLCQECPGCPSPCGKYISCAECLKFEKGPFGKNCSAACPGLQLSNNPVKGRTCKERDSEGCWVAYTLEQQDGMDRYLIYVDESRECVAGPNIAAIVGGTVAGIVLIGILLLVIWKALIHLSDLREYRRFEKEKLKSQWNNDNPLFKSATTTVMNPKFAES
Kind of experiment: HTS cell adhesion assay, K562 E320A cells on immobilized fibrinogen. The class given is cell-based. The following applies: Table 3, adhesion to fibrinogen, five point dose-response. The method, then:
K562 cells stably expressing CD11c/CD18 (K562 CD11c/CD18) were generated similarly. […] K562 cells stably transfected with mutant integrin CD11bE320A/CD18 (K562 E320A) were generated according to literature protocols. All cell lines were maintained in Iscove's Modified Dulbecco's Medium (IMDM) supplemented with 10% heat-inactivated fetal bovine serum, 50 IU/mL penicillin and streptomycin and 0.5 mg/mL G418.
Cell adhesion assays with immobilized ligands were performed using the general protocol previously described and as illustrated in FIG. 1 [33]. Assays with all different K562 cell lines (K562, K562 CD11b/CD18, K562 CD11c/CD18 and K562 E320A) were performed in an identical fashion. Briefly, 384-well microplates (Corning 3700) were coated with 15 μg/mL fibrinogen (Fg) ligand in PBS^++ overnight at 4° C. At the same time, anti-CD18 (IB4) mAb was also coated. Subsequently, the coated wells were washed with 1% nonfat milk in TBS at room temperature for 1 hour. Next, the wells were washed 3 times with TBS, and the coated microplates were used in the HTS assays.
K562 CD11b/CD18, K562 CD11bE320A/CD18 and K562 CD11c/CD18 cells were washed with TBS, and cells were transferred to the Fg-coated wells of microplates in the assay buffer (Ca^2+ and Mg^2+ for physiological condition, Mn^2+ as the Positive control). A 1 μL aliquot of the compounds were transferred to each washed well with multichannel pipet from the 384-well plates.
The assay plates were incubated at 37° C. in the presence of small-molecule compounds for 30 min. To dislodge the non-adherent cell, the assay plates were gently inverted and kept in inverted position for 20 min at room temperature.
The cells were fixed with 37% formaldehyde in a small volume and the plates were kept inverted for 1 h. Upon the fixation, the solutions in the well were discarded. Next, the cells were fluorescently labeled with DAPI (0.5 μM final in TBS with 0.1% Triton X-100) and the quantitated with “Opera High Content Screening System” (Perkin Elmer).
Cell-adhesion under positive and negative control conditions was used to define the activity scale; signal corresponding to the number of non-small molecule treated cells adherent in activating buffer condition (in the presence of Mn^2+ ions as agonist, PC) was considered maximum (100% binding) and the signal corresponding to the number of non-small molecule treated cells adherent in basal buffer condition (in the presence of 1 mM each of Ca^2+ and Mg^2+, NC) was considered minimum (0% binding).
With `COc1ccc(-c2cc(C(=O)OCC(=O)Nc3ccc4c(c3)OCO4)c3ccccc3n2)cc1` [Compound 2338283], the “EC50 E320A” value is “Infinite”.

In the case of `Cc1csc(NC(=O)c2cc(-c3ccco3)nc3ccccc23)n1` [Compound 2366866], the EC50 – broadly, the concentration giving half of the maximal effect – was determined as 8.59 µM.

Consider `N#Cc1ccsc1NC(=O)CSc1ncnc2ccccc12` [Compound 2369720], for which the EC50 turned out to be 11.3 µM.

`Cc1[nH]nc2ncc(C(=O)c3cc(Cl)cc(Cl)c3O)cc12` [Compound 2421294] yielded an EC50 of 9.81 µM.

`CCC(=O)Nc1ccc(C(=O)CSc2nnc(-c3ccccc3F)n2C2CC2)cc1` [Compound 2448744] displayed an EC50 of 21.8 µM.

`O=C(Nc1nc2c(s1)CCCC2)c1cc(-c2ccncc2)nc2ccccc12` [Compound 2462581] showed an EC50 of 12.6 µM.

Consider `O=C(CNC(=O)c1cc2c(s1)CCC2)Nc1ccccc1Br` [Compound 2537029], for which the EC50 turned out to be 8760 µM.

As for `CCC(=O)Nc1ccc(C(=O)CSc2nc3ccc(C)cc3[nH]2)cc1` [Compound 2549650], it took 10.3 µM to reach a half-maximal effect (EC50).

`Cc1sc2nc(CSc3nc4ccccc4c(=O)n3CCCN3CCOCC3)[nH]c(=O)c2c1C` [Compound 2566737] returned an EC50 of 8.42 µM.

As for `CC(C)CCn1c(SCC(=O)N2CC(=O)Nc3ccccc32)nc2scc(-c3cccs3)c2c1=O` [Compound 2566842], the EC50 came to 7.57 µM.

In turn, `Cc1ccc(CN2C(=O)C3CCCN3c3ccc(S(=O)(=O)N4CCOCC4)cc32)cc1` (centres unmarked) [Compound 2766156] came in with an EC50 of 10.7 µM.

The compound `O=C(CC1Nc2ccccc2NC1=O)Nc1ccccc1` (centres unmarked) [Compound 2829724] showed an EC50 of 18.3 µM.

With `CCOC(=O)C(Cc1ccccc1)C(=O)Nc1ccc(NC(=O)C(Cc2ccccc2)C(=O)OCC)cc1` (centres unmarked) [Compound 2836867], the EC50 is 121 µM.

`COc1ccc(NC(=O)CCC(=O)OCC(=O)c2ccc(Oc3ccc([N+](=O)[O-])cc3)cc2)cc1` [Compound 2912337] returned an EC50 of 12.4 µM.

As for `CC1CCc2c(sc(NC(=O)c3ccc(Cn4cc(Br)cn4)o3)c2C(N)=O)C1` (centres unmarked) [Compound 2941732], a half-maximal effect (EC50) was put at 35.6 µM.

`CCn1c(COc2ccc3c(c2)CCCC3)nnc1SCC(=O)Nc1ccc(C(=O)OC)cc1` [Compound 2958500] showed a concentration giving a half-maximal response (EC50) of 8.94 µM.

The compound `CC(C)CN(C(=O)COC(=O)c1cc2c(s1)CCC2)C1CCS(=O)(=O)C1` (centres unmarked) [Compound 2998734] showed an EC50 of 8.02 µM.

The compound `O=C(Cc1coc2cc3c(cc12)CCC3)OCc1cc(=O)n2c(n1)sc1ccccc12` [Compound 3000165] came in with an EC50 of 9.02 µM.

In turn, `CC1=NN(c2nc(-c3ccc(C)cc3)cs2)C(=O)C1N=Nc1ccc2ccccc2c1` (centres unmarked) [Compound 3101589] had an EC50 of 13.4 µM.

Compound `COc1ccccc1N1CSC2=C(C#N)C(c3ccc(SC)cc3)CC(=O)N2C1` (centres unmarked) [Compound 3160888] gave an EC50 of 11.4 µM.

`CSCCOC(=O)c1[nH]c2c(c1C)C(=O)CC(c1ccco1)C2` (centres unmarked) [Compound 3162305] returned an EC50 of 10.4 µM.

Take `CCc1nc(SCC(=O)Nc2nnc(CC)s2)c2c(C)c(C)sc2n1` [Compound 3197508]: the midpoint of the response, the EC50, lay at 8.48 µM.

Take `Cc1ccc(-c2noc(C3CCCN(S(=O)(=O)c4ccc(S(=O)(=O)N(C)C)cc4)C3)n2)o1` (centres unmarked) [Compound 3226283]: it took 6.69 µM to reach a half-maximal effect (EC50).

On to `Cc1cc(C)c(NC(=O)Cn2c(=O)n(Cc3ccco3)c(=O)c3ccccc32)c(C)c1` [Compound 3237376], for which the EC50 was 12.2 µM.

Turning to `COC(=O)/C(=C1/Oc2cc3c(cc2S1)OCO3)C(F)(F)F` [Compound 3237460], the EC50 is 135 µM.

`COc1cc(NC(=O)c2noc3c2CCC3)c(OC)cc1Cl` [Compound 3238190] gave a concentration for a half-maximal effect (EC50) of 10.5 µM.

In the case of `O=C(CSc1nc2ccccc2c2nc3ccccc3n12)NCc1ccco1` [Compound 3238872], it took 19.1 µM to reach a half-maximal effect (EC50).

Turning to `CCOC(=O)C1CCN(S(=O)(=O)c2ccc(-c3nc4ccccc4s3)s2)CC1` [Compound 3241379], the response was half-maximal at 12.6 µM (EC50).

For `COc1ccc(C(=O)Nc2ccc(N3CCN(c4ccc(OC)cc4)CC3)c(C#N)c2)cc1` [Compound 3241486], the EC50 was 9.08 µM.

Values taken from patent US20180319865A1, “Identification of Novel Small Molecule Beta2 Integrin Agonists” (Rush University Medical Center, priority 2016, published 2018).
